Results from patent US20050255178A1, “Enhancing the effectiveness of an inhaled therapeutic gas” (priority 2004, published 2005).

Legend:
[1] = system: U-46619-induced pulmonary vasoconstriction; test: CO inhaled alone or in combination with BAY 41-2272 during U-46619-induced pulmonary vasoconstriction; assay type: in vivo
Text: Systemic hemodynamics, lung gas exchange, and transpulmonary cGMP release were also unchanged by CO inhalation. Arterial concentrations of carboxyhemoglobin gradually rose from 1.0±0.2% to 4.7±0.4% (P<0.01) and from 1.4±0.1% to 5.2±0.2% (P<0.01), respectively, after breathing 500 ppm CO alone or in combination with BAY 41-2272.

awake lambs = test: U-46619-induced pulmonary hypertension in awake lambs: hemodynamics, gas exchange, cGMP release; assay type: in vivo
Experimental: In awake lambs instrumented with vascular catheters and a tracheostomy tube, the thromboxane analog U-46619 was infused intravenously to increase mean pulmonary arterial pressure (PAP) to 35 mm Hg. After a stabilization period, seven animals received an intravenous infusion of BAY 41-2272 (Alexis Biochemicals, Lausen, Switzerland) at 0.03, 0.1, and 0.3 mg·kg^−1·h^−1 administered for 30 minutes each. In another eight animals, inhaled NO (2, 10, and 20 ppm) was administered in random order for 10 minutes each followed by 15 minute NO-free periods. An intravenous infusion of BAY 41-2272 (0.1 mg·kg^−1·h^−1) was then started. After increasing the infusion of U-46619 to maintain PAP at 35 mmHg, NO was inhaled as before BAY 41-2272. In an additional eight lambs, which received an intravenous infusion of the NO synthase inhibitor, L-NAME (25 mg/kg+5 mg·kg^−1·h^−1), together with U-46619, NO was inhaled before and during the infusion of BAY 41-2272.
Data were analyzed using repeated measures ANOVA followed by Dunnett adjustment. A p<0.05 was considered statistically significant.

[2] = system: mouse model of pulmonary hypertension; test: Mouse model of pulmonary hypertension (U46619): pulmonary and systemic arterial pressures; assay type: in vivo, mice
Experimental: A mouse model of pulmonary hypertension was used to examine the combined effects of YC-1 and inhaled NO. Three mice (average weight 25 g) were anesthetized, their chest opened, catheters were placed in the carotid and pulmonary arteries, and pulmonary and systemic arterial pressures were recorded (FIG. 4). U46619, a thromboxane analogue was administered intravenously to induce pulmonary vasoconstriction. NO (4 parts per million) was added to the inspired gas, and pulmonary vasodilation was measured. Thereafter, NO inhalation was discontinued, and the duration of the pulmonary vasodilator effect was measured.
YC-1 was administered as boluses over one minute (10, 50 and 100 ug), and both pulmonary artery pressure and systemic blood pressure were measured. Thereafter, YC-1 was administered as an infusion (5 ug/min), and the rate of U46619 infusion was increased (2- to 3-fold) to re-establish pulmonary vasoconstriction. The pulmonary vasodilator response to breathing 4 ppm NO was measured, and duration of pulmonary vasodilation after discontinuing NO was assessed.

[3] = BAY 41-2272 0.1 mg·kg^−1·h^−1, L-NAME 25 mg/kg+5 mg·kg^−1·h^−1 iv, n=8
[4] = BAY 41-2272 0.1 mg·kg^−1·h^−1 iv with inhaled NO, P<0.05
[5] = BAY 41-2272 infusion with NO inhaled at 10 and 20 ppm
[6] = BAY 41-2272 infusion with NO inhaled at 10 and 20 ppm, P<0.05 vs. baseline PH
[7] = BAY 41-2272 iv infusion 0.03, 0.1, 0.3 mg·kg^−1·h^−1, 30 min each, n=7
[8] = during BAY 41-2272 infusion, inhalation of 10 and 20 ppm NO, P<0.01 vs. baseline PH
[9] = inhaled NO alone at 20 ppm, P<0.05
[10] = YC-1 boluses over one minute (10, 50 and 100 ug)

What does the source list for `Nc1nc(-c2nn(Cc3ccccc3F)c3ncccc23)ncc1C1CC1` [BAY 41-2272, 3-(4-amino-5-cyclopropylpyrimidine-2-yl)-1-(2-fluorobenzyl)-1H-pyrazolo[3,4-b]pyridine]?
plasma levels of BAY 41-2272 ([1]; in vivo): remained stable; vasodilator effect on U-46619-induced pulmonary vasoconstriction ([1]; inhalation of CO following administration of / in combination with BAY 41-2272): no vasodilator effect; pulmonary vasodilation induced by BAY 41-2272 in presence of L-NAME (awake lambs; [3]): but not pulmonary vasodilation; systemic vasodilation induced by BAY 41-2272 in presence of L-NAME (awake lambs; [3]): abolished; reduction of PAP induced by inhaled NO (awake lambs; BAY 41-2272 0.1 mg·kg^−1·h^−1 iv with inhaled NO 2, 10, 20 ppm, P<0.05): markedly enhanced; reduction of PVRI induced by inhaled NO (awake lambs; [4]): markedly enhanced; reduction of PVRI/SVRI induced by inhaled NO (awake lambs; [4]): markedly enhanced; HR (awake lambs; [5]): remained unchanged; MAP (awake lambs; [5]): remained unchanged; central venous pressure (CVP) (awake lambs; [5]): remained unchanged; reduction of right ventricle stroke work index (RVSWI) (awake lambs; BAY 41-2272 infusion with NO inhaled at 10 and 20 ppm vs inhaled NO alone, P<0.05): to a greater extent than did inhaled NO alone; cardiac index (CI) (awake lambs; [6]): increments; pulmonary capillary wedge pressure (PCWP) (awake lambs; [6]): minor reductions; stroke volume index (SVI) (awake lambs; [6]): increments; systemic vascular resistance index (SVRI) (awake lambs; [6]): minor reductions; mean PAP (percent change from pre-treatment pulmonary hypertension value) (awake lambs; [7]): dose-dependent reductions; pulmonary vascular resistance index (PVRI) (percent change from pre-treatment pulmonary hypertension value) (awake lambs; [7]): dose-dependent reductions; reductions in mean PAP and PVRI compared with corresponding reductions in MAP and SVRI (awake lambs; BAY 41-2272 iv infusion 0.03-0.3 mg·kg^−1·h^−1, p<0.05): significantly greater; increase of transpulmonary cGMP release (awake lambs; co-administration of BAY 41-2272 and inhaled NO vs inhaled NO alone, P<0.05): to a greater extent than did inhaled NO alone; persistence of pulmonary vasodilation (T1/2) after NO was discontinued (awake lambs; during BAY 41-2272 infusion vs before, P<0.05): greater than that before the infusion; P(A-a)O2 (awake lambs; [8]): reduced; PaO2/FiO2 (awake lambs; [8]): augmented; Qs/Qt (awake lambs; [8]): reduced; plasma BAY 41-2272 concentrations (awake lambs; during the period of NO administrations, iv infusion 0.1 mg·kg^−1·h^−1): remained at a stable level

What does the source list for `[C-]#[O+]` [CO, carbon monoxide]?
lung gas exchange ([1]; CO inhalation): unchanged; systemic hemodynamics ([1]; CO inhalation): unchanged; transpulmonary cGMP release ([1]; CO inhalation): unchanged; vasodilator effect on U-46619-induced pulmonary vasoconstriction ([1]; inhalation of CO alone): no vasodilator effect

What does the source list for `[N]=O` [NO, Nitric oxide]?
T1/2 of return of PAP to baseline pulmonary hypertension after NO was discontinued (awake lambs; inhaled NO alone): < 1 min; arterial methemoglobin concentrations (awake lambs; inhaled NO alone): no significant changes; pulmonary vasodilation (awake lambs; inhaled NO alone 2, 10, 20 ppm, 10 min each): dose-dependent, selective pulmonary vasodilation; transpulmonary cGMP release (awake lambs; inhaled NO alone 10 and 20 ppm, P<0.01): increased; P(A-a)O2 (awake lambs; [9]): reduced; PaO2/FiO2 (awake lambs; [9]): increased; Qs/Qt (awake lambs; [9]): reduced

How did the “pulmonary vasodilator response to breathing NO” value ([2]; 4 ppm NO during YC-1 infusion (5 ug/min) vs NO alone) turn out when `OCc1ccc(-c2nn(Cc3ccccc3)c3ccccc23)o1` [YC-1, 3-(5′-hydroxymethyl-2′-furyl)-1-benzylindazole] was run?
The value was “greater pulmonary vasodilator response than did breathing NO alone”.

What about the “systemic vasodilation on addition of NO inhalation to YC-1” value ([2]; 4 ppm NO, YC-1 infusion 5 ug/min) of the same molecule?
The value was “did not cause systemic vasodilation”.

And the “pulmonary vasodilation (pulmonary artery pressure)” value [2, 10]?
The value was “induced both pulmonary and systemic vasodilation”.

What about the “systemic vasodilation (systemic blood pressure)” value [2, 10] of the same molecule?
The value was “induced both pulmonary and systemic vasodilation”.

What about the “duration of pulmonary vasodilation after discontinuing NO inhalation” value ([2]; during YC-1 infusion (5 ug/min) vs before, P<0.01) of the same molecule?
Its value is “greater during an infusion of YC-1 than before”.
